Data reported in ChEMBL document CHEMBL4052718, “Stereospecific inhibition of nitric oxide production in macrophage cells by flavanonols: Synthesis and the structure-activity relationship. Part 2” (Bioorg Med Chem, 2017).

Key:
RAW264.7 [1] = assay: Inhibition of LPS-stimulated nitric oxide production in […] cells at 100 uM pretreated for 2 hrs followed by LPS-stimulation after 16 hrs by Griess assay relative to control; assay type: functional; details: Mus musculus
RAW264.7 [2] = assay: Cytotoxicity against LPS-stimulated […] cells assessed as reduction in cell viability at 100 uM pretreated for 2 hrs followed by LPS-stimulation after 16 hrs by alamar blue assay; assay type: cell-based; details: raw264.7, 16 h
[3] = Cytotoxicity against LPS-stimulated […] cells assessed as cell viability pretreated for 2 hrs followed by LPS-stimulation after 16 hrs by alamar blue assay relative to control; assay type: cell-based; set-up: concentration or dose not given beside the values; details: LPS-stimulated RAW264.7 cells; read-out: Activity
RAW264.7 [4] = assay: Inhibition of LPS-stimulated nitric oxide production in […] cells pretreated for 2 hrs followed by LPS-stimulation after 16 hrs by Griess assay; assay type: functional, cell-based; details: Mus musculus

SMILES	inhibition at 100 µM (RAW264.7 [1]) [%]	Activity (RAW264.7 [2])	viability at 16 h [3] [%]	IC50 (RAW264.7 [4]) [µM]
COc1cc(OC)c2c(c1)O[C@H](c1cccc(O)c1O)[C@@H](O)C2=O	70			
O=C1c2ccc(O)cc2O[C@H](c2cccc(O)c2O)[C@H]1O	70	Non-Toxic	≥ 100	70.7
COc1ccc2c(c1)O[C@@H](c1cccc(O)c1O)[C@H](O)C2=O		Non-Toxic	≥ 100	30.3
COc1ccc2c(c1)O[C@H](c1cccc(O)c1O)[C@@H](O)C2=O		Non-Toxic	≥ 100	24.6
O=C1c2ccc(O)c(O)c2O[C@H](c2cccc(O)c2O)[C@H]1O	95	Non-Toxic	≥ 100	17
COc1ccc2c(c1)C(=O)[C@H](O)[C@@H](c1cccc(O)c1O)O2		Non-Toxic	≥ 100	> 100
O=C1c2c(O)cccc2O[C@H](c2cccc(O)c2O)[C@H]1O		Non-Toxic	≥ 100	77.7
O=C1c2c(O)cccc2O[C@@H](c2cccc(O)c2O)[C@@H]1O		Non-Toxic	≥ 100	> 100
COc1ccc2c(c1O)O[C@H](c1cccc(O)c1O)[C@@H](O)C2=O	93	Non-Toxic	≥ 100	49.7
O=C1c2cc(O)ccc2O[C@@H](c2cccc(O)c2O)[C@@H]1O		Non-Toxic	≥ 100	> 100
COc1cc2c(cc1OC)C(=O)[C@H](O)[C@@H](c1cccc(O)c1O)O2	93	Non-Toxic	≥ 100	50.3
COc1ccc2c(c1)C(=O)[C@@H](O)[C@H](c1cccc(O)c1O)O2		Non-Toxic	≥ 100	> 100
COc1ccc2c(c1O)O[C@@H](c1cccc(O)c1O)[C@H](O)C2=O		Non-Toxic	≥ 100	88.5
O=C1c2ccc(O)cc2O[C@@H](c2cccc(O)c2O)[C@@H]1O		Non-Toxic	≥ 100	> 100
O=C1c2ccccc2O[C@H](c2cccc(O)c2O)[C@H]1O		Non-Toxic	≥ 100	> 100
O=C1c2ccccc2O[C@@H](c2cccc(O)c2O)[C@@H]1O		Non-Toxic	≥ 100	> 100
O=C1c2cc(O)ccc2O[C@H](c2cccc(O)c2O)[C@H]1O		Non-Toxic	≥ 100	> 100
COc1cc2c(cc1OC)C(=O)[C@@H](O)[C@H](c1cccc(O)c1O)O2		Non-Toxic	≥ 100	> 100
O=C1c2ccc(O)c(O)c2O[C@@H](c2cccc(O)c2O)[C@@H]1O	0	Non-Toxic	≥ 100	> 100
Cc1ccc2c(c1)OC(c1cccc(O)c1O)C(O)C2=O (racemic)		Non-Toxic	≥ 100	31.8
COc1cc(OC)c2c(c1)OC(c1cccc(O)c1O)C(O)C2=O (racemic)	58	Non-Toxic	≥ 100	57.6
Cc1ccc2c(c1)C(=O)C(O)C(c1cccc(O)c1O)O2 (racemic)		Non-Toxic	≥ 100	45.3
Cc1cc2c(cc1C)C(=O)C(O)C(c1cccc(O)c1O)O2 (racemic)		Non-Toxic	≥ 100	20.7
